PubChem BioAssay AID2060603 (Molecular Pharmacology Branch, DTP, NCI, 2025)
pIC50: −log10 of the molar value.

System: 422866-222-R5-J1-PDC spheroid viability
Experiment: Anticancer human tumor 422866-222-R5-J1-PDC patient-derived pancreatic adenocarcinoma cell line growth inhibition [CLK]
Conditions: spheroids with HUVEC and MSC; for pIC50: curve of first compound; for viability, T/C: stronger effect = lower value
How it was run: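 Multi-cell-type spheroids combined patient-derived tumor cells with HUVEC endothelial cells and human mesenchymal stem cells. Paired agents were dosed in half-log steps down from about clinical Cmax, or from 10 microM where Cmax was unknown.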

[1] = second compound 0.0316 µM, first compound 0.0316 µM
[2] = second compound 0.0316 µM, first compound 0.1 µM
[3] = second compound 0.0316 µM, first compound 0.316 µM
[4] = second compound 0.0316 µM, first compound 1 µM
[5] = second compound 0.1 µM, first compound 0.0316 µM
[6] = second compound 0.1 µM, first compound 0.1 µM
[7] = second compound 0.1 µM, first compound 0.316 µM
[8] = second compound 0.1 µM, first compound 1 µM
[9] = second compound 0.316 µM, first compound 0.0316 µM
[10] = second compound 0.316 µM, first compound 0.1 µM
[11] = second compound 0.316 µM, first compound 0.316 µM
[12] = second compound 0.316 µM, first compound 1 µM
[13] = second compound 1 µM, first compound 0.0316 µM
[14] = second compound 1 µM, first compound 0.1 µM
[15] = second compound 1 µM, first compound 0.316 µM
[16] = second compound 1 µM, first compound 1 µM
[17] = second compound 3.16 µM, first compound 0.0316 µM
[18] = second compound 3.16 µM, first compound 0.1 µM
[19] = second compound 3.16 µM, first compound 0.316 µM
[20] = second compound 3.16 µM, first compound 1 µM
[21] = second compound 10 µM, first compound 0.0316 µM
[22] = second compound 10 µM, first compound 0.1 µM
[23] = second compound 10 µM, first compound 0.316 µM
[24] = second compound 10 µM, first compound 1 µM
[25] = second compound 0.0316 µM, first compound 0.00316 µM
[26] = second compound 0.0316 µM, first compound 0.01 µM
[27] = second compound 0.1 µM, first compound 0.00316 µM
[28] = second compound 0.1 µM, first compound 0.01 µM
[29] = second compound 0.316 µM, first compound 0.00316 µM
[30] = second compound 0.316 µM, first compound 0.01 µM
[31] = second compound 1 µM, first compound 0.00316 µM
[32] = second compound 1 µM, first compound 0.01 µM
[33] = second compound 3.16 µM, first compound 0.00316 µM
[34] = second compound 3.16 µM, first compound 0.01 µM
[35] = second compound 10 µM, first compound 0.00316 µM
[36] = second compound 10 µM, first compound 0.01 µM
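Note: spheroids exposed to agents for seven days before readout.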

CC(Nc1ccc2c(c1)OCCn1cc(N3C(=O)OCC3C(F)F)nc1-2)C(N)=O (stereo unspecified) + CNC(=O)c1ccc(Nc2nc(OC3CCCC3)c3c(-c4ccc5nc(C)oc5c4)c[nH]c3n2)c(OC)c1
pIC50 (second compound 0.0316 µM): 6.84 | pIC50 (second compound 0.1 µM): 6.76 | pIC50 (second compound 0.316 µM): 7.07 | pIC50 (second compound 1 µM): 7.31 | pIC50 (second compound 3.16 µM): 7.49 | pIC50 (second compound 10 µM): 7.20 | viability, T/C [1]: 80.2% | viability, T/C [2]: 52.4% | viability, T/C [3]: 42.6% | viability, T/C [4]: 35.1% | viability, T/C (second compound 0.0316 µM, first compound 3.16 µM): 30.1% | viability, T/C (second compound 0.0316 µM, first compound 10 µM): 28.7% | viability, T/C [5]: 83.7% | viability, T/C [6]: 56.9% | viability, T/C [7]: 43.8% | viability, T/C [8]: 32.8% | viability, T/C (second compound 0.1 µM, first compound 3.16 µM): 25.6% | viability, T/C (second compound 0.1 µM, first compound 10 µM): 31.9% | viability, T/C [9]: 56.3% | viability, T/C [10]: 49.1% | viability, T/C [11]: 37% | viability, T/C [12]: 28.1% | viability, T/C (second compound 0.316 µM, first compound 3.16 µM): 29.2% | viability, T/C (second compound 0.316 µM, first compound 10 µM): 24.2% | viability, T/C [13]: 56.2% | viability, T/C [14]: 37.6% | viability, T/C [15]: 37.7% | viability, T/C [16]: 31% | viability, T/C (second compound 1 µM, first compound 3.16 µM): 26.2% | viability, T/C (second compound 1 µM, first compound 10 µM): 24.9% | viability, T/C [17]: 50.2% | viability, T/C [18]: 41.2% | viability, T/C [19]: 37.5% | viability, T/C [20]: 29.4% | viability, T/C (second compound 3.16 µM, first compound 3.16 µM): 28.8% | viability, T/C (second compound 3.16 µM, first compound 10 µM): 25.3% | viability, T/C [21]: 58.9% | viability, T/C [22]: 43% | viability, T/C [23]: 36.7% | viability, T/C [24]: 31.9% | viability, T/C (second compound 10 µM, first compound 3.16 µM): 33.1% | viability, T/C (second compound 10 µM, first compound 10 µM): 25.8%

CCN1CCN(Cc2ccc(Nc3ncc(F)c(-c4cc(F)c5nc(C)n(C(C)C)c5c4)n3)nc2)CC1 + CNC(=O)c1ccc(Nc2nc(OC3CCCC3)c3c(-c4ccc5nc(C)oc5c4)c[nH]c3n2)c(OC)c1
pIC50 (second compound 0.0316 µM): < 6.00 | pIC50 (second compound 0.1 µM): < 6.00 | pIC50 (second compound 0.316 µM): < 6.00 | pIC50 (second compound 1 µM): < 6.00 | pIC50 (second compound 3.16 µM): < 6.00 | pIC50 (second compound 10 µM): < 6.00 | viability, T/C [25]: 96.2% | viability, T/C [26]: 111% | viability, T/C [1]: 79% | viability, T/C [2]: 73.5% | viability, T/C [3]: 80.9% | viability, T/C [4]: 96.2% | viability, T/C [27]: 81.5% | viability, T/C [28]: 84.5% | viability, T/C [5]: 72.1% | viability, T/C [6]: 64.4% | viability, T/C [7]: 77.5% | viability, T/C [8]: 88.9% | viability, T/C [29]: 67.5% | viability, T/C [30]: 58.9% | viability, T/C [9]: 60.5% | viability, T/C [10]: 59.3% | viability, T/C [11]: 65.3% | viability, T/C [12]: 71.9% | viability, T/C [31]: 72% | viability, T/C [32]: 62.8% | viability, T/C [13]: 59.2% | viability, T/C [14]: 47.9% | viability, T/C [15]: 62.8% | viability, T/C [16]: 65.6% | viability, T/C [33]: 65.2% | viability, T/C [34]: 51.5% | viability, T/C [17]: 56.2% | viability, T/C [18]: 56.2% | viability, T/C [19]: 66.5% | viability, T/C [20]: 67.9% | viability, T/C [35]: 54.6% | viability, T/C [36]: 62.1% | viability, T/C [21]: 54.5% | viability, T/C [22]: 58.6% | viability, T/C [23]: 63.2% | viability, T/C [24]: 74.2%

COc1c(OCCCN2CCOCC2)ccc2c3n(c(=NC(=O)c4cnc(N)nc4)nc12)CCN3 + CNC(=O)c1ccc(Nc2nc(OC3CCCC3)c3c(-c4ccc5nc(C)oc5c4)c[nH]c3n2)c(OC)c1
pIC50 (second compound 0.0316 µM): 7.92 | pIC50 (second compound 0.1 µM): 7.77 | pIC50 (second compound 0.316 µM): 7.93 | pIC50 (second compound 1 µM): > 8.50 | pIC50 (second compound 3.16 µM): 8.07 | pIC50 (second compound 10 µM): > 8.50 | viability, T/C [25]: 83.3% | viability, T/C [26]: 51.5% | viability, T/C [1]: 39.9% | viability, T/C [2]: 26.8% | viability, T/C [3]: 28.4% | viability, T/C [4]: 30.3% | viability, T/C [27]: 72.2% | viability, T/C [28]: 60% | viability, T/C [5]: 37.7% | viability, T/C [6]: 32.1% | viability, T/C [7]: 26.7% | viability, T/C [8]: 33.4% | viability, T/C [29]: 62.8% | viability, T/C [30]: 53.6% | viability, T/C [9]: 29.5% | viability, T/C [10]: 23.9% | viability, T/C [11]: 25.7% | viability, T/C [12]: 32.9% | viability, T/C [31]: 50.1% | viability, T/C [32]: 47.1% | viability, T/C [13]: 33.5% | viability, T/C [14]: 27.6% | viability, T/C [15]: 25.9% | viability, T/C [16]: 36.8% | viability, T/C [33]: 57.6% | viability, T/C [34]: 48.7% | viability, T/C [17]: 31.9% | viability, T/C [18]: 25.4% | viability, T/C [19]: 28.6% | viability, T/C [20]: 36.1% | viability, T/C [35]: 47.2% | viability, T/C [36]: 43.3% | viability, T/C [21]: 35.5% | viability, T/C [22]: 28% | viability, T/C [23]: 33.5% | viability, T/C [24]: 36.1%
